Bounds are passed on as bounds.

This is an account of results in US20110015226A1, “Treatment of Energy Utilization Disease” (SUMMIT CORPORATION PLC, priority 2008, published 2011).

For data set [1], the target named is T1, rat intestinal isomaltase (Rattus norvegicus, UniProt P23739).
T1 construct: Enzyme activities were prepared from brush border membranes of rat small intestine; from tissue; host or cells: rat small intestine brush border membranes
The data set is described as follows: Rat intestinal glycosidases: isomaltase. Type of data set: biochemical. Conditions: rat intestinal brush border membranes. As for the experimental part: (§1) Enzyme activities were prepared from brush border membranes of rat small intestine using disaccharides as substrates as described by Yasuda et al., 2002.

For data set [2], the target named is T2, rat intestinal sucrase (Rattus norvegicus, UniProt P23739).
T2 construct: Enzyme activities were prepared from brush border membranes of rat small intestine; from tissue; host or cells: rat small intestine brush border membranes
The data set is described as follows: Rat intestinal glycosidases: sucrase. Type of data set: biochemical. Conditions: rat intestinal brush border membranes. The method, then: as §1

Data set [3] addresses T3, rat intestinal cellobiase (Rattus norvegicus, UniProt Q02401).
T3 construct: Enzyme activities were prepared from brush border membranes of rat small intestine; from tissue; host or cells: rat small intestine brush border membranes
As to the kind of experiment: Rat intestinal glycosidases: cellobiase. As to conditions: rat intestinal brush border membranes. Type of data set: biochemical. The method, then:
as §1

Data set [4] can be described thus: Uptake of G2 after oral Gymnema water extract, urine monitoring. Type of data set: in vivo, human. Conditions: one volunteer. The method, then:
In a preliminary experiment on one volunteer to determine if G2 was readily absorbed from the gastrointestinal tract, a water extract of Gymnema leaves obtained commercially containing 7 mg of G2 was drunk and urine monitored for G2 over 4 hours (0-2 hours and 2-4 hours). An internal standard of 1 mg of castanospermine was added to the two samples of urine prior to applying to a cation exchange resin (IR120 in the H^+ form). After washing the resin with copious water, the bound material was displaced wing excess 2M NH4^+ solution and dried for GC-MS analysis. The samples were derivatised using Pierce Tri-Sil to produce trimethyl-silyl-derivatives of the imino sugars and imino sugar acids. GC-MS was carried out on a Perkin Elmer TurboMass Gold mass spectrometer, with a quadrupole ion filter system, which was run at 250° C. constantly during analysis. The detector mass range was set to 100 to 650 amu. The temperature of the transfer line (GC to MS) was held at 250° C. The GC column was a […] fused-silica column (Varian ‘Factor Four’ VF-5 ms column, 25 m×0.25 mm i.d., 0.25 μm phase thickness). The carrier gas (helium) flow rate was 1 ml min-1. G2 gives a characteristic mass spectrum as the tms derivative and was well resolved allowing quantification.

Data set [5] is described as follows: Solubility in water. Type of data set: physicochemical.
Data set [6] in a line: Storage stability. Type of data set: physicochemical. As to conditions: all normal laboratory storage conditions.
The subject of data set [7] is ddy mice. As to the kind of experiment: Serum insulin levels in ddy mice with or without glucose load. Type of data set: in vivo. As to conditions: 30 minutes. As for the experimental part: 7 week old ddy mice (weight 30-31 g) were divided into 4 groups (groups 1 to 4). Each group had 3-4 mice. All test mouse were fasted for 16 hours before being given the test compounds.
Group 1: Control. un-treated mice (without glucose and G2). Group 2: Oral administration of glucose alone. Group 3: Oral administration of G2 alone. Group 4: Oral administration of G2 with glucose.
Serum insulin levels were measured after 30 minutes (see FIG. 2).
FIG. 3 Effects of G2 (BR1) (100 mg/kg body weight) on serum insulin levels.
Serum insulin concentrations of male ddy mouse after 30 minutes later an oral load with or without D-glucose (2.5 g/kg body weight). Each value represents the mean±SEM (n=3-4). * P<0.05, ** P<0.01.

Data set [8] deals with ddy mice. As to the kind of experiment: Blood glucose levels after maltose loading in ddy mice. Type of data set: in vivo. The method, then:
7 weeks old ddy mice (weight 30-31 g) were divided into 4 groups (from group 1 to 4). Each group had 5 mouse. All test mouse were fasted for 16 hours for this experiment.
The aim of this experiment was to show if G2 (here coded as BR1) could suppress a hyperglycemia after a meal. Thus, maltose was chosen as the loading sugar as used for Bayer's glucosidase inhibitor Glucobay. Either maltose (2.5 g/kg) or Surose (2.5 g/kg) or starch (1.0 g/kg) can be used but maltose is most popular.
Group 1: Control. Maltose-loading only (without G2 condition). Group 2: oral administration of G2 with maltose (same time). Group 3: intraperitoneal injection of G2 and oral administration of maltose (same time). Group 4: oral administration of G2 30 minutes before maltose-loading. (Glucobay is taken 30 minutes before meals).

For data set [9], the target named is rat intestinal maltase. As to conditions: from Yasuda et al., 2002; cited from earlier work.

T2 sequence (P23739 whole entry): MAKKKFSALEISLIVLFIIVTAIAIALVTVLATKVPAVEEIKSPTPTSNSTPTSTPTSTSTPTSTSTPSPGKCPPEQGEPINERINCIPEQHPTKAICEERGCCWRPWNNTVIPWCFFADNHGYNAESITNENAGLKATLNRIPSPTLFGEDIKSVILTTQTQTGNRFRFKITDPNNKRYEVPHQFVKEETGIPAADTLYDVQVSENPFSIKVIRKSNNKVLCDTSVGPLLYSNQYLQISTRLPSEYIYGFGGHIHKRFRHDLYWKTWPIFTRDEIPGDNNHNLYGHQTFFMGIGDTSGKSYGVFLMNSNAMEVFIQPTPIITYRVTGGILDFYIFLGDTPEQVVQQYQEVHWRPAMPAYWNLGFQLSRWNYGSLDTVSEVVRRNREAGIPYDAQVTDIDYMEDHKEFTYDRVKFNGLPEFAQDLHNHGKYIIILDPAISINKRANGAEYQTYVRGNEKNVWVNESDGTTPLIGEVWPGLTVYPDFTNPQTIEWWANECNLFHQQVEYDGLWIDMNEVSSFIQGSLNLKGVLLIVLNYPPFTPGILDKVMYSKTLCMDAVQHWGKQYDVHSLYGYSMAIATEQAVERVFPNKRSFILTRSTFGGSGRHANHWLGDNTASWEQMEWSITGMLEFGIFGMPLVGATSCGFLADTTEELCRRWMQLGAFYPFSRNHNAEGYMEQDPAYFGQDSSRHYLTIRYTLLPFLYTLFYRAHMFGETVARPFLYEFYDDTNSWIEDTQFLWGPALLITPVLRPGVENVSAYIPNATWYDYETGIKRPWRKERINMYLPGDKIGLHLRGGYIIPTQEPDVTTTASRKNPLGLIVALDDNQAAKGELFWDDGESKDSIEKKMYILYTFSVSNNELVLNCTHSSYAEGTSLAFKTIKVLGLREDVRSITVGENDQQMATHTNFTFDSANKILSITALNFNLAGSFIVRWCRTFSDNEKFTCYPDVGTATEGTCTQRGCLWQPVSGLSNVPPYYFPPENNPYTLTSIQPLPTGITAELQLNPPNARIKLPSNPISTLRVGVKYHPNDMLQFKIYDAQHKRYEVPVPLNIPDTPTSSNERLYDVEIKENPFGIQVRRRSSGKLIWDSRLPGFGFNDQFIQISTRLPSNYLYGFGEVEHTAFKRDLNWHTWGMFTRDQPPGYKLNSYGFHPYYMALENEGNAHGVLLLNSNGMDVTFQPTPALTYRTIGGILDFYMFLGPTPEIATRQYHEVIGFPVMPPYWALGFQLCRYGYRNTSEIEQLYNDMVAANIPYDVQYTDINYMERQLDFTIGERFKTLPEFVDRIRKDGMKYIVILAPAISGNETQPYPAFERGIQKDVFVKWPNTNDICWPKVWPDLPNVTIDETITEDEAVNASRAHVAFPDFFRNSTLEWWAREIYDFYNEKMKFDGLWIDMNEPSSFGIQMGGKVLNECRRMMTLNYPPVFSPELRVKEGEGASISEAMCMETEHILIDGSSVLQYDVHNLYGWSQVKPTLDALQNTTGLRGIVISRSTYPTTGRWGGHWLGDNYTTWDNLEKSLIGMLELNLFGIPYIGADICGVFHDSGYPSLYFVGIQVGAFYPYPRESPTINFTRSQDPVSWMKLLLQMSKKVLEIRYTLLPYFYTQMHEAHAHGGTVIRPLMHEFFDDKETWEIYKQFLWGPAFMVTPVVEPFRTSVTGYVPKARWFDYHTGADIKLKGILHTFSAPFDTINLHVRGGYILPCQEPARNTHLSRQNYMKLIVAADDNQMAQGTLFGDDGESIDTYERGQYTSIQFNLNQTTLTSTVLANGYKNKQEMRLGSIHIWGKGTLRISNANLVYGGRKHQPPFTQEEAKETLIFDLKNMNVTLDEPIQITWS
T1 sequence (P23739 whole entry): as above
T3 sequence (Q02401 868-1928): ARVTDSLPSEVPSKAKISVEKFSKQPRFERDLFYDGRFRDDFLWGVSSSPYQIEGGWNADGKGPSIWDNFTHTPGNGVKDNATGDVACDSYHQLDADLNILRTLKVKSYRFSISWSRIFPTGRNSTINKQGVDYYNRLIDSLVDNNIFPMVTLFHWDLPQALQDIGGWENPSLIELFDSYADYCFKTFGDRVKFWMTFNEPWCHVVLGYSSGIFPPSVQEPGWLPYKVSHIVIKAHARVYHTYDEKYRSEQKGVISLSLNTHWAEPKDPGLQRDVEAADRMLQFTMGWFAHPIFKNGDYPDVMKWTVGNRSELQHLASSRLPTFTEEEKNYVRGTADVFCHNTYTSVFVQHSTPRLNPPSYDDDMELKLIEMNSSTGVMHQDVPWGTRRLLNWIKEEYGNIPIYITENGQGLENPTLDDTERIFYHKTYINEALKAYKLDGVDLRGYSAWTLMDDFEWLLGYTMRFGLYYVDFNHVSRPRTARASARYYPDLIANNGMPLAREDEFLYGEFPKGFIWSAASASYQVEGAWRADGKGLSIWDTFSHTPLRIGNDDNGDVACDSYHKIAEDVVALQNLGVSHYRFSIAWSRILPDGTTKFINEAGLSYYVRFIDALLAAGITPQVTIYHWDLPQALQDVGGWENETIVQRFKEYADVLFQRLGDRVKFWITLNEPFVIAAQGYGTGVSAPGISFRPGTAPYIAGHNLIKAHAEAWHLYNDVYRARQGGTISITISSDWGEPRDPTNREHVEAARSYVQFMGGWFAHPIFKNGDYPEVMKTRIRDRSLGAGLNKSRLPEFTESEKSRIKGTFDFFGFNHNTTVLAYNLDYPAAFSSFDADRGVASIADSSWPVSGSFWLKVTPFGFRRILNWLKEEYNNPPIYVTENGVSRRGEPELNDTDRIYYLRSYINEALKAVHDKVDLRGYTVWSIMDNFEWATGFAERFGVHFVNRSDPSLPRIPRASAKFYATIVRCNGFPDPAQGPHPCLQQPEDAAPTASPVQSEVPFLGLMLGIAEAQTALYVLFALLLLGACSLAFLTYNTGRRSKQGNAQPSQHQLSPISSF

The IC50 is the concentration at which inhibition is half-maximal. Turning to `O=C(O)[C@H]1NC[C@H](O)[C@@H](O)[C@@H]1O` [Compound G2, 2S,3R,4R,5S-trihydroxypiperidine-2-carboxylic acid], the IC50 in [1], in data set [2] and in [3] was above 1000 µM each time. The “G2 recovered in urine” value in data set [4] (oral water extract containing 7 mg of G2, within four hours) is around 7 mg. In addition, in [4] (oral water extract of Gymnema leaves containing 7 mg of G2, urine 0-2 hours and 2-4 hours), the G2 in urine result is “detected”. In addition, the solubility in water entry in data set [5] is listed as “freely soluble”. The stability result in data set [6] is listed as “stable”. Also, the “serum insulin level, G2 with glucose” value in data set [7] (100 mg/kg body weight oral with D-glucose 2.5 g/kg, vs glucose alone) is reported as “much effective than glucose alone”. The “serum insulin level, G2 alone” value in [7] (100 mg/kg body weight oral, without glucose, vs un-treated) is on record as “did not affect the insulin level”. Besides, the “absorption into the blood” value in data set [8] (inferred from p.o. and i.p. curves being almost same) is listed as “absorbed into the blood very quickly”. The “blood glucose level (hyperglycemia) after maltose loading” value in data set [8] (p.o. with maltose, i.p. with maltose, or p.o. 30 minutes before maltose (2.5 g/kg)) was “suppress hyperglycemia”.

Turning to `OC[C@H]1NC[C@H](O)[C@@H](O)[C@@H]1O` [DNJ, 1-deoxynojirimycin, reference compound], the IC50 in data set [9] is 0.36 µM.
